Experimental data reported in PubChem BioAssay (NCI).
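A five-concentration, 48-hour dose response in 96-well plates underlies each endpoint, interpolated linearly between surrounding concentrations. GI50 marks 50% less growth. TGI: total growth inhibition.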

Key:
Assay in all cases: NCI-60 cell line screen, 48 h
ACHN renal = test system: ACHN renal
CAKI-1 renal = test system: CAKI-1 renal
DU-145 prostate = test system: DU-145 prostate
EKVX NSCLC = test system: EKVX NSCLC
HCT-116 colon = test system: HCT-116 colon
HOP-62 NSCLC = test system: HOP-62 NSCLC
OVCAR-4 ovarian = test system: OVCAR-4 ovarian
OVCAR-8 ovarian = test system: OVCAR-8 ovarian
SW-620 colon = test system: SW-620 colon
SK-MEL-28 melanoma = test system: SK-MEL-28 melanoma

Row | SMILES | GI50 (ACHN renal) [µM] | TGI (ACHN renal) [µM] | GI50 (CAKI-1 renal) [µM] | TGI (CAKI-1 renal) [µM] | GI50 (DU-145 prostate) [µM] | TGI (DU-145 prostate) [µM] | GI50 (EKVX NSCLC) [µM] | TGI (EKVX NSCLC) [µM] | GI50 (HCT-116 colon) [µM] | TGI (HCT-116 colon) [µM] | GI50 (HOP-62 NSCLC) [µM] | TGI (HOP-62 NSCLC) [µM] | GI50 (OVCAR-4 ovarian) [µM] | TGI (OVCAR-4 ovarian) [µM] | GI50 (OVCAR-8 ovarian) [µM] | TGI (OVCAR-8 ovarian) [µM] | GI50 (SW-620 colon) [µM] | TGI (SW-620 colon) [µM] | TGI (SK-MEL-28 melanoma) [µM] | GI50 (SK-MEL-28 melanoma) [µM]
1 | CC1CCN(CCOc2ccc(CNc3ccc4nc(CCC5CCCCC5)[nH]c4c3)cc2)CC1 | 1.76 | 3.22 | 1.87 | 3.34 | 2.52 | 6.9 | 1.62 | 3.18 | 1.4 | 2.72 | 1.68 | 3.21 | 2.62 | 8.18 | 1.96 | 4.24 | 1.7 | 3.35 | – | –
2 | C#CCNC(=O)NC(CCCCNC(=O)OCc1ccccc1)C(=O)OCc1ccccc1 (stereo not drawn) | – | > 100 | – | > 100 | – | > 100 | – | > 100 | – | > 100 | – | > 100 | – | > 100 | – | > 100 | – | > 100 | 38.5 | –
3 | O=S(=O)(O)c1ccc2cc3nn(-c4ccc(/C=C/c5ccc(-n6nc7cc8ccc(S(=O)(=O)O)cc8cc7n6)cc5S(=O)(=O)O)c(S(=O)(=O)O)c4)nc3cc2c1 | 81.6 | > 100 | > 100 | > 100 | > 100 | > 100 | 95.2 | > 100 | 23.6 | > 100 | > 100 | > 100 | > 100 | > 100 | > 100 | > 100 | 63.2 | > 100 | > 100 | > 100
4 | CCOC(=O)C(Cc1ccc(N(CCCl)CCCl)cc1)NC(=O)C(Cc1ccccc1)NC(C)=O (stereo not drawn) | – | 0.309 | – | 0.419 | – | > 1 | – | > 0.538 | – | > 0.388 | – | > 0.431 | – | 0.0353 | – | > 1 | – | > 1 | – | –
5 | COc1cc(/C=C/C(=O)O[C@H]2[C@H](O[C@@H]3O[C@@H](C)[C@H](O)[C@@H](O)[C@H]3O)[C@@H](O)[C@H](OCCc3ccc(O)c(O)c3)O[C@@H]2COC2OCC(O)(CO)C2O)ccc1O (stereo partly drawn) | > 100 | > 100 | > 100 | > 100 | > 100 | > 100 | > 100 | > 100 | > 100 | > 100 | > 100 | > 100 | > 100 | > 100 | – | – | 20.1 | 46 | > 100 | > 100
6 | C=CC(=O)N[C@@H](/C=C/C(=O)OCC)Cc1ccc(-c2cc(Cl)cc(Cl)c2)cc1 | 16.1 | > 100 | 21.5 | > 100 | 12.9 | 64.2 | 11.2 | > 100 | 5.29 | 34.2 | – | – | 5.23 | 74.4 | 8.89 | > 100 | 17 | 83.2 | 79.8 | 18.1
